Test results published in US7759367B2, “Pharmaceutical compositions and their uses” (Eisai R&D Management Co., Ltd., priority 2001, dated 2010).
Read-outs that look alike come from different tables or passages of the source.

Experiments:
Female Lewis rats = test: Experimental autoimmune encephalomyelitis model (Test Example 10); type: in vivo, rat; details: p.o. 5, 10 and 20 mg/kg, 10-16 dpi
Protocol: Female Lewis rats (205±10 g) obtained from Charles River, Kent UK, were housed in pairs under environmentally controlled conditions (6:00a.m.-6:00p.m. light/dark cycle; 22-24° C.; 45-55% humidity) and allowed free access to food and water. Experimental groups consisted of 9-12 animals. Rats were immunised in each hind foot with 20-50 μl of inoculum containing 50 μg guinea pig myelin basic protein (MBP; final concentration 2 mg/ml), emulsified in Freund's complete adjuvant (CFA; Sigma, UK) containing Mycobacterium tuberculosis H37Ra (final concentration 5.5 mg/ml; Difco Laboratories, UK). Animals were weighed and monitored daily and clinical disease scored as (0) no clinical signs; (1) flaccid tail and weight loss; (2) hind limb hypotonia with further weight loss; (3) complete hind limb paralysis; (4) paraplegia and (5) death. […] During the period of compound administration (10-16 days post immunisation; dpi) animals were scored 15 h after injection of vehicle or compound to avoid any acute effect of treatment on disease score. Compounds were dissolved/suspended in 0.5% methyl cellulose using a hand held Polytron homogeniser (PT1200; 2 min). Rats were dosed p.o. with either methyl cellulose vehicle (2.5 ml/kg) or compound at 5, 10 and 20 mg/kg.

male mice of ddy strain = test: Anticonvulsant action induced by AMPA (Test Example 2); type: in vivo; details: 25 mg/kg orally, AMPA 2 nmole/5 μl/minute/mouse into lateral ventricle 30 minutes or 1 hour after dosing
Protocol: A test compound was suspended in a 0.5% methyl cellulose solution or in sesame oil and was orally administered (25 mg/kg) to male mice of ddy strain. After 30 minutes or 1 hour from the oral administration, AMPA was continuously injected (2 nmole/5 μl/minute/mouse) into lateral ventricle to induce the convulsions. The effect was judged by a time-extending action until the convulsion takes place by a continuous injection of AMPA.

Lewis rats = test: Acute EAE in Lewis rats: Example 7 alone and combined with interferon-β (In Vivo Example 1); details: Lewis rat acute EAE, Example 7 10 mg/kg p.o., interferon-β 1×10^6 Units/rat s.c., once daily 7-16 dpi
Protocol: Female Lewis rats (200+10 g) obtained from Charles River, Kent, UK, were housed in pairs under environmentally controlled conditions (6:00 a.m.-6:00 p.m. light/dark cycle; 22-24° C.; 45-55% humidity) and allowed free access to food and water. Experimental groups consisted of 8 animals.
Rats were immunised in each hind foot with 15 μl of inoculum containing […] guinea pig myelin basic protein (MBP, prepared by the method of Dunkley and Carnegie (1974); final concentration 2 mg/ml), emulsified in Freund's complete adjuvant (CFA; Sigma, UK) containing Mycobacterium tuberculosis H37Ra (final concentration 5.5 mg/ml; Difco Laboratories, UK).
Animals were weighed and monitored daily and clinical disease scored as (0) no clinical signs; (1) flaccid tail and weight loss; (2) hind limb hypotonia with further weight loss; (3) complete hind limb paralysis; (4) paraplegia and (5) death. […] During the period of compound administration (7-16 days post immunisation; dpi) animals were scored 15 h after injection of vehicle, compound of example 7 or interferon-β to avoid any acute effect of treatment on disease score.
3-(2-Cyanophenyl)-1-phenyl-5-(2-pyridyl)-1,2-dihydropyridin-2-one; (example 7) was suspended in 0.5% methyl cellulose (MC) solution to obtain a compound concentration of 4 mg/ml. Interferon-β was dissolved in PBS to obtain a compound concentration of 5×10^6 Units/ml. Rats were dosed once daily (9 a.m.) on days 7 to 16 post immunisation with either vehicle (methyl cellulose p.o. and PBS s.c.), the compound alone in the dose of 10 mg/kg (p.o. plus vehicle PBS s.c), interferon-β alone in the dose of 1×10^6 Units/rat (s.c. plus methyl cellulose p.o.) or example 7 in the dose of 10 mg/kg (p.o) combined with interferon-β in the dose of 1×10^6 Units/rat (s.c.).

[1] = primary culture of rat embryo cerebral cortex nerve cells, Fura2-AM, 2 μM AMPA, 1 μM MK-801
[2] = suppression of AMPA-induced calcium influx into nerve cells, Table 2
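For IC50 in this document: neurons cultured at least 8 to 10 days atop an astrocyte layer in 96-well plates, calcium entry read as the change in Fura2 fluorescence ratio at 340/380 nm excitation.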

Protocol for AMPA receptor: Cerebral cortex was cut out from the brain of rat of gestational 18 days and treated with trypsin and DNase to disperse the cells. The cells were flown by MEM containing 10% of serum, sown in a culture bottle and astrocytes were proliferated. The astrocytes were re-dispersed by trypsin and sown in a 96-well plate. After incubation for one week, it was confirmed that the astrocytes covered all over the bottom and then the nerve cells of cerebral cortex which was dispersed by the above method were sown thereupon. After incubation for 24 hours, the medium was changed, the incubation was carried out for one week and, after that, the medium was changed to that containing 1 μM of MK-801. Nerve cells which were incubated for not shorter than 8 to 10 days were used.
Calcium influx into the cells was measured using Fura2-AM which was a calcium-sensitive fluorescent dye. It was treated in a medium containing Fura2-AM for 1 hour, incorporated into the cells, exchanged to a Tyrode solution containing 1 μM MK-801 and stimulation was carried out using 2 μM AMPA. Change in the amount of calcium flown into the cells were measured as the change in the fluorescent intensity at the exciting wave length of 340/380 nm.

With N#Cc1ccccc1-c1cc(-c2ccccn2)cn(-c2ccccc2)c1=O [Example 7, 3-(2-Cyanophenyl)-1-phenyl-5-(2-pyridyl)-1,2-dihydropyridin-2-one] as the molecule, how does the “Effect on EAE vs vehicle-administered group” value (Female Lewis rats) read?
The value was “superior effect to the vehicle-administered group”.

And the “Anticonvulsant action (time-extending action until convulsion by continuous AMPA injection)” value (from here on “Anticonvulsant action”) (male mice of ddy strain)?
The value was “significant anticonvulsant action”.

And the “Duration (days)” value (Lewis rats; mean and range, n=8)?
The value was 3.0 (0-4) days.

What about the “Onset (d.p.i.)” value (Lewis rats; mean and range, n=8 (n=1 for the combination)) of the same molecule?
Its value is 11.8 (11-15) d.p.i.

What about the “Effect on disease progression (paralysis, disease score, onset, duration) during EAE, in words” value (Lewis rats; n=8/group) of the same molecule?
The value was “significantly delayed disease onset, shortened disease duration and reduced peak and cumulative disease score”.

And the “Peak Disease Score” value (Lewis rats; clinical score 0-5, mean and range, n=8)?
The value was 1.8 (0-3).

And the “Cumulative Disease Score” value (Lewis rats; summation of individual daily disease scores, mean and range, n=8)?
The value was 4.8 (0-10).

And the “Weight Loss (%)” value (Lewis rats; weight on 18 dpi as percent of maximum weight before disease onset, mean and range, n=8)?
Its value is 17 (10-23) %.

And the IC50 (AMPA receptor; [1])?
The IC50 was 100 nM.

Which “Anticonvulsant action” value (male mice of ddy strain) does the source give for N#Cc1ccccc1-c1cc(-c2ccccn2)cn(-c2cccc(N)c2)c1=O [Example 9, 3-(2-Cyanophenyl)-5-(2-pyridyl)-1-(3-aminophenyl)-1,2-dihydropyridin-2-one] here?
Its value is “significant anticonvulsant action”.

What about the IC50 (AMPA receptor; [1]) of the same molecule?
Its IC50 is 30 nM.

CN(C)c1cccc(-n2cc(-c3ccccn3)cc(-c3ccccc3C#N)c2=O)c1 [Example 12, 3-(2-Cyanophenyl)-5-(2-pyridyl)-1-(3-dimethylaminophenyl)-1,2-dihydropyridin-2-one] was tested. Which “Anticonvulsant action” value (male mice of ddy strain) did it give?
The value was “significant anticonvulsant action”.

And the IC50 (AMPA receptor; [1])?
The IC50 was 100 nM.

What does the source list for N#Cc1ncccc1-c1cc(-c2ccccn2)cn(-c2ccccc2)c1=O [Example 16, 3-(2-Cyano-3-pyridyl)-5-(2-pyridyl)-1-phenyl-1,2-dihydropyridin-2-one]?
Anticonvulsant action (time-extending action until convulsion by continuous AMPA injection) (male mice of ddy strain): significant anticonvulsant action; IC50 (AMPA receptor; [1]): 100 nM

With N#Cc1ccccc1-c1cc(-c2ccccn2)cn(-c2cccnc2)c1=O [Example 32, 3-(2-Cyanophenyl)-5-(2-pyridyl)-1-(3-pyridyl)-1,2-dihydropyridin-2-one] as the molecule, how does the “Effect on EAE vs vehicle-administered group” value (Female Lewis rats) read?
Its value is “superior effect to the vehicle-administered group”.

What about the “Anticonvulsant action” value (male mice of ddy strain) of the same molecule?
Its value is “significant anticonvulsant action”.

What about the IC50 (AMPA receptor; [1]) of the same molecule?
The IC50 was 100 nM.

For N#Cc1ccccc1-c1cc(-c2ccccc2)cn(-c2ccccc2)c1=O [Example 41, 3-(2-Cyanophenyl)-1,5-diphenyl-1,2-dihydropyridin-2-one], which “Anticonvulsant action” value (male mice of ddy strain) is on record?
Its value is “significant anticonvulsant action”.

What about the IC50 (AMPA receptor; [1]) of the same molecule?
The IC50 was 80 nM.

For O=c1c(-c2cccnc2F)cc(-c2ccccn2)cn1-c1ccccc1 [Example 76, 3-(2-Fluoro-3-pyridyl)-5-(2-pyridyl)-1-phenyl-1,2-dihydropyridin-2-one], which “Effect on EAE vs vehicle-administered group” value (Female Lewis rats) is on record?
The value was “superior effect to the vehicle-administered group”.

What about the “Anticonvulsant action” value (male mice of ddy strain) of the same molecule?
Its value is “significant anticonvulsant action”.

Which results are given for N#Cc1cccnc1-c1cc(-c2ccccn2)cn(-c2ccccc2)c1=O [Example 78, 3-(3-Cyano-2-pyridyl)-5-(2-pyridyl)-1-phenyl-1,2-dihydropyridin-2-one]?
Anticonvulsant action (time-extending action until convulsion by continuous AMPA injection) (male mice of ddy strain): significant anticonvulsant action; IC50 (AMPA receptor; [1]): 1400 nM

How did the “Anticonvulsant action” value (male mice of ddy strain) turn out when N#Cc1ccccc1-c1cc(-c2ccccn2)cn(-c2ccc(F)cc2)c1=O [Example 91, 3-(2-Cyanophenyl)-5-(2-pyridyl)-1-(4-fluorophenyl)-1,2-dihydropyridin-2-one] was run?
The value was “significant anticonvulsant action”.

What about the IC50 (AMPA receptor; [1]) of the same molecule?
The IC50 was 50 nM.

How did the “Anticonvulsant action” value (male mice of ddy strain) turn out when N#Cc1sccc1-c1cc(-c2ccccn2)cn(-c2cccnc2)c1=O [Example 137, 3-(2-Cyanothiophen-3-yl)-5-(2-pyridyl)-1-(3-pyridyl)-1,2-dihydropyridin-2-one] was run?
The value was “significant anticonvulsant action”.

Which results are given for O=c1c(-c2cccnc2F)cc(-c2ccccn2)cn1-c1cccnc1 [Example 139, 3-(2-Fluoro-3-pyridyl)-5-(2-pyridyl)-1-(3-pyridyl)-1,2-dihydropyridin-2-one]?
Effect on EAE vs vehicle-administered group (Female Lewis rats): superior effect to the vehicle-administered group; Anticonvulsant action (time-extending action until convulsion by continuous AMPA injection) (male mice of ddy strain): significant anticonvulsant action

With N#Cc1ccccc1-c1cc(-c2ncccn2)cn(-c2ccccc2)c1=O [Example 164, 3-(2-Cyanophenyl)-1-phenyl-5-(2-pyrimidinyl)-1,2-dihydropyridin-2-one] as the molecule, how does the “Effect on EAE vs vehicle-administered group” value (Female Lewis rats) read?
The value was “superior effect to the vehicle-administered group”.

And the “Anticonvulsant action” value (male mice of ddy strain)?
The value was “significant anticonvulsant action”.

And the IC50 (AMPA receptor; [2])?
Its IC50 is 80 nM.

Which “Anticonvulsant action” value (male mice of ddy strain) does the source give for N#Cc1ccccc1-c1cc(-c2cnccn2)cn(-c2ccccc2)c1=O [Example 199, 3-(2-Cyanophenyl)-1-phenyl-5-(2-pyrazinyl)-1,2-dihydropyridin-2-one] here?
Its value is “significant anticonvulsant action”.

How did the “Effect on EAE vs vehicle-administered group” value (Female Lewis rats) turn out when N#Cc1ccccc1-c1cc(-c2ncccn2)cn(-c2cccnc2)c1=O [Example 261, 3-(2-Cyanophenyl)-1-(3-pyridyl)-5-(2-pyrimidinyl)-1,2-dihydropyridin-2-one] was run?
Its value is “superior effect to the vehicle-administered group”.

And the “Anticonvulsant action” value (male mice of ddy strain)?
Its value is “significant anticonvulsant action”.

What does the source list for O=c1c(-c2cccnc2F)cc(-c2ncccn2)cn1-c1ccccc1 [Example 262, 3-(2-Fluoropyridin-3-yl)-1-phenyl-5-(2-pyrimidinyl)-1,2-dihydropyridin-2-one]?
Effect on EAE vs vehicle-administered group (Female Lewis rats): superior effect to the vehicle-administered group; Anticonvulsant action (time-extending action until convulsion by continuous AMPA injection) (male mice of ddy strain): significant anticonvulsant action; IC50 (AMPA receptor; [2]): 300 nM

N#Cc1ncccc1-c1cc(-c2ncccn2)cn(-c2ccccc2)c1=O [Example 264, 3-(2-Cyanopyridin-3-yl)-1-phenyl-5-(2-pyrimidyl)-1,2-dihydropyridin-2-one] was tested. Which “Effect on EAE vs vehicle-administered group” value (Female Lewis rats) did it give?
The value was “superior effect to the vehicle-administered group”.

What about the “Anticonvulsant action” value (male mice of ddy strain) of the same molecule?
The value was “significant anticonvulsant action”.

How did the “Anticonvulsant action” value (male mice of ddy strain) turn out when O=c1c(-c2ccccc2[N+](=O)[O-])cc(-c2ccccn2)cn1-c1ccccc1 [Example 270, 3-(2-Nitrophenyl)-1-phenyl-5-(2-pyridyl)-1,2-dihydropyridin-2-one] was run?
The value was “significant anticonvulsant action”.

How did the “Anticonvulsant action” value (male mice of ddy strain) turn out when N#Cc1ccccc1-c1cc(-c2cccc(N)n2)cn(-c2ccccc2)c1=O [Example 298, 5-(2-Aminopyridin-6-yl)-3-(2-cyanophenyl)-1-phenyl-1,2-dihydropyridin-2-one] was run?
The value was “significant anticonvulsant action”.
